Experiments:
Test in all cases: IC50 for competition of protein binding to Kinobeads
Details in all cases: assay detail: Kinobeads competition in P. falciparum blood-stage lysate
[1] = biological target: UniProt O97266
[2] = biological target: UniProt Q8IKF0
[3] = biological target: UniProt Q7KQJ9
[4] = biological target: UniProt Q6LFH8
[5] = biological target: UniProt Q8I526
[6] = biological target: UniProt Q8I5B3
[7] = biological target: UniProt Q8I328
[8] = biological target: UniProt Q8IB73
[9] = biological target: UniProt Q8I5S6
[10] = biological target: UniProt Q8ILZ7
[11] = biological target: UniProt Q8IBL5
[12] = biological target: UniProt Q8I4V8
UniProt Q8I4V8, sequence (Q8I4V8 whole entry): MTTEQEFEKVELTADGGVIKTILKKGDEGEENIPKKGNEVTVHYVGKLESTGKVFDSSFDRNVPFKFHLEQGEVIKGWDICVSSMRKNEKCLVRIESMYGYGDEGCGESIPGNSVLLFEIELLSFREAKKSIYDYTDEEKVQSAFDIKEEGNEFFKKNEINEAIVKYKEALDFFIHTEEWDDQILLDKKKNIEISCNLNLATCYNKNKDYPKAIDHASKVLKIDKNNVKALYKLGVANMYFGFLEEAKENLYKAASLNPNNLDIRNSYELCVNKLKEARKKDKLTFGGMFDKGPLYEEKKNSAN

[13] = biological target: UniProt Q8IDT0
[14] = biological target: UniProt Q8I5X7
[15] = biological target: UniProt C0H570
[16] = biological target: UniProt Q8IHT9
[17] = biological target: UniProt Q8IDI5
[18] = biological target: UniProt Q8IJN3
[19] = biological target: UniProt Q8IDG2
[20] = biological target: UniProt Q8IB31
[21] = biological target: UniProt Q8IJC6
[22] = biological target: UniProt Q8IM27
[23] = biological target: UniProt Q8IDZ2
[24] = biological target: UniProt Q8ILE8
[25] = biological target: UniProt O77310
UniProt O77310, sequence (O77310 whole entry): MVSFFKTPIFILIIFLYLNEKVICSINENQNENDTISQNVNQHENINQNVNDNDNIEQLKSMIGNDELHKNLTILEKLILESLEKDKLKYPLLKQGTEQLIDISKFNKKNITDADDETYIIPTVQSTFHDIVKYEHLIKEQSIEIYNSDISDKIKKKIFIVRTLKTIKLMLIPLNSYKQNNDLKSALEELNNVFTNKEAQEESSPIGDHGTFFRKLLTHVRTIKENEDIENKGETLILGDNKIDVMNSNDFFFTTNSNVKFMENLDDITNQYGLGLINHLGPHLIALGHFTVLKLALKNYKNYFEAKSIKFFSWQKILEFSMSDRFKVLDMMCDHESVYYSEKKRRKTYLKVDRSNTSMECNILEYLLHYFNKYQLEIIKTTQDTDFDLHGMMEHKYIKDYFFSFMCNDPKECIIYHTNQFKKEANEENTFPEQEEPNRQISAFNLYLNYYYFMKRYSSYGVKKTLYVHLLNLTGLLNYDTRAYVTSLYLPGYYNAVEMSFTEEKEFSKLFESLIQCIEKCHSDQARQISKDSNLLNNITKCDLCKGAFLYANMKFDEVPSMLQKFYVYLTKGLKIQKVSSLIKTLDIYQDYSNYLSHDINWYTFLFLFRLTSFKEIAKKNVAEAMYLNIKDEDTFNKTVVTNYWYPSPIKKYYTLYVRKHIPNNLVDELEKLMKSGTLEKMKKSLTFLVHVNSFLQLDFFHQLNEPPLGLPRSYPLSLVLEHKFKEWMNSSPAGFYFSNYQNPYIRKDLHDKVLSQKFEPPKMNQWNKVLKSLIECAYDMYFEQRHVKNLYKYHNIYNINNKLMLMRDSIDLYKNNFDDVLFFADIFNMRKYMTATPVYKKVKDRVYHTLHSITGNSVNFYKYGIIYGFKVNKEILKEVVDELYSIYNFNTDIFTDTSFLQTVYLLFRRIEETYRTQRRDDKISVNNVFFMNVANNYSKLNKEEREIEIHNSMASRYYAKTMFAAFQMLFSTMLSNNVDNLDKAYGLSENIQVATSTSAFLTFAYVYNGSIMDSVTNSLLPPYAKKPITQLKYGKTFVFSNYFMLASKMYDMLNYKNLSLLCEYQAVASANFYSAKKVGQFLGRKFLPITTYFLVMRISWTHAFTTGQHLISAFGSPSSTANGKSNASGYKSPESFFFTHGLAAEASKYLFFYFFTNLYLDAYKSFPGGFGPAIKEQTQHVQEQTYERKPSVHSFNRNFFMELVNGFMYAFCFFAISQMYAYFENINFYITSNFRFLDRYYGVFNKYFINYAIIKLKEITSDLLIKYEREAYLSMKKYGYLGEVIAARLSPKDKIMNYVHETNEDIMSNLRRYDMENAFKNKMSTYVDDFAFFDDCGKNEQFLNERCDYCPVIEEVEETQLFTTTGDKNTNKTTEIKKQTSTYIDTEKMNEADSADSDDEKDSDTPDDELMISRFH

[26] = biological target: UniProt Q8II60
[27] = biological target: UniProt C6KSR5
[28] = biological target: UniProt Q8I1V2
[29] = biological target: UniProt Q8IJI4
[30] = biological target: UniProt Q8I3J0
[31] = biological target: UniProt Q8I5D4
[32] = biological target: UniProt Q76NM6
UniProt Q76NM6, sequence (Q76NM6 whole entry): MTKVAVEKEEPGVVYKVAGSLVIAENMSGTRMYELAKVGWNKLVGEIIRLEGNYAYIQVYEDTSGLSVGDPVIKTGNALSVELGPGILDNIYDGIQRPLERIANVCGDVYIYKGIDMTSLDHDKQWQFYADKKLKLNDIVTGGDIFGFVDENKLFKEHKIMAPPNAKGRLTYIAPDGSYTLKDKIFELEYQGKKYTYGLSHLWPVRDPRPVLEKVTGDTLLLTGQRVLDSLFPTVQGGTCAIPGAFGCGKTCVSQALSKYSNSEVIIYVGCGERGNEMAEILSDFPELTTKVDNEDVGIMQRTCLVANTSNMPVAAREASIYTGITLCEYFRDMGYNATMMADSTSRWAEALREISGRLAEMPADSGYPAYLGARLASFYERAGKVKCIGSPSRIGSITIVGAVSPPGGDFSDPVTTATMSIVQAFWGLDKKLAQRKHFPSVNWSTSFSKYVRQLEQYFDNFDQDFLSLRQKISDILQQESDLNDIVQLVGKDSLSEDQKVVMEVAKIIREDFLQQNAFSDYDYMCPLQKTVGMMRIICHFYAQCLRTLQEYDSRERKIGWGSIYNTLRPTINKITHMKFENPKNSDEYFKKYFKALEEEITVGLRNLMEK

[33] = biological target: UniProt Q8IJR9
UniProt Q8IJR9, sequence (Q8IJR9 whole entry): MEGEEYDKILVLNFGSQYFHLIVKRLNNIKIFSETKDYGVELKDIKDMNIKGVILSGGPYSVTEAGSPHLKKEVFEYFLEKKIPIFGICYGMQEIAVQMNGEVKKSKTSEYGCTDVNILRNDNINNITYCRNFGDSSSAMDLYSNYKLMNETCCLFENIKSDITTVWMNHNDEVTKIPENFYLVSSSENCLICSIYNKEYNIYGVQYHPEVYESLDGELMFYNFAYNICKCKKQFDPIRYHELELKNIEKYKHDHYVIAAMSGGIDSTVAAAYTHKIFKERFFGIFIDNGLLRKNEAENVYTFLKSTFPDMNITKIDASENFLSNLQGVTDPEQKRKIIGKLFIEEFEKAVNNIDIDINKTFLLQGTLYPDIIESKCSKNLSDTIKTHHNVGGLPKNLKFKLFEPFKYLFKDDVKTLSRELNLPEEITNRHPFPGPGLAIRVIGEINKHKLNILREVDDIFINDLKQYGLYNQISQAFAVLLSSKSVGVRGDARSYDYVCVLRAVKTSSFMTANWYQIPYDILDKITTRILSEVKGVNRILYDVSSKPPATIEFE

[34] = biological target: UniProt C0H529
[35] = biological target: UniProt Q8ILL5
[36] = biological target: UniProt Q8II72
[37] = biological target: UniProt Q8IIA4
[38] = biological target: UniProt Q8IEM3
[39] = biological target: UniProt Q9TY96
UniProt Q9TY96, sequence (Q9TY96 whole entry): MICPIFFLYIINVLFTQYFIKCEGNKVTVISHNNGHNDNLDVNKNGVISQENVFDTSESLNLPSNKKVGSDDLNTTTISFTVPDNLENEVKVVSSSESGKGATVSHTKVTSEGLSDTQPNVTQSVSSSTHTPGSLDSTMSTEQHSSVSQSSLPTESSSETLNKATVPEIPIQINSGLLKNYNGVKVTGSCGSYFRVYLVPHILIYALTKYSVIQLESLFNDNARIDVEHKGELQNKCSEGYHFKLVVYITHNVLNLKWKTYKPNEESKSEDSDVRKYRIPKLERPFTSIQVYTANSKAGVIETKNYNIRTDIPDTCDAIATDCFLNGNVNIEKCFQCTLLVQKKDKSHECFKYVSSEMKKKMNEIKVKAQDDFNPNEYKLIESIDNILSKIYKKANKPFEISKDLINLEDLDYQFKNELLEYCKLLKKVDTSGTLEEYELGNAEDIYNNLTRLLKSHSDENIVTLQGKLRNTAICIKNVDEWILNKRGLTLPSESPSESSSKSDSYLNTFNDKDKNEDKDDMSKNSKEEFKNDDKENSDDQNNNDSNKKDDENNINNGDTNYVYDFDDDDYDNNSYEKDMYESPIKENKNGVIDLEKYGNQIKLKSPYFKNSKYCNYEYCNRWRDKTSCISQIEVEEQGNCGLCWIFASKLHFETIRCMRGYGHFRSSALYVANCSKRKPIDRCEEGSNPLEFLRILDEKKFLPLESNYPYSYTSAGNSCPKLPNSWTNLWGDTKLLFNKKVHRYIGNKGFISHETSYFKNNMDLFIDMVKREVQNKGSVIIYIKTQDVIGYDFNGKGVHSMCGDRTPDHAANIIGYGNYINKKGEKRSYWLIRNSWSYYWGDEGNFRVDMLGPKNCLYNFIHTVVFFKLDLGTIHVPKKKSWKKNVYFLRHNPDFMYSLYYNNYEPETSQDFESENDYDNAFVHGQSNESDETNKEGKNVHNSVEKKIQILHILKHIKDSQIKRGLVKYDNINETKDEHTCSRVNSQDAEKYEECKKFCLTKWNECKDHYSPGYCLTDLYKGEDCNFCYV

[40] = biological target: UniProt Q8IB24
[41] = biological target: A0A146LZZ4
[42] = biological target: UniProt Q8IHR8
[43] = biological target: UniProt Q8IJD0
[44] = biological target: UniProt Q8I1Z8
[45] = biological target: UniProt Q8IJX0
[46] = biological target: UniProt Q9U0K8
[47] = biological target: UniProt O97248
[48] = biological target: UniProt Q8IIS9
[49] = biological target: UniProt Q8I4X0
UniProt Q8I4X0, sequence (Q8I4X0 whole entry): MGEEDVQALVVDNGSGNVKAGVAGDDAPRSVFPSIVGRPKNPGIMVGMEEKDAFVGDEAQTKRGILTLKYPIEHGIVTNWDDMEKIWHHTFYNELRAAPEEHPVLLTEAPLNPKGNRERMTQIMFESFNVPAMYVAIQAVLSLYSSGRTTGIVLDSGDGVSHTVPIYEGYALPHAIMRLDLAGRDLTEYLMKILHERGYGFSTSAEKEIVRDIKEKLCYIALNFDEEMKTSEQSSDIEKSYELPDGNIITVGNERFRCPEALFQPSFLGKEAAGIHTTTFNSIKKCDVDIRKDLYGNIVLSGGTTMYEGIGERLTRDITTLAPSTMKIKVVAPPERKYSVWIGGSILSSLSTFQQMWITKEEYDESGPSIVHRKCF

[50] = biological target: UniProt Q9TY98
[51] = biological target: UniProt Q8ILC1
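Further: native unpurified kinases from lysate captured on beads bearing immobilized kinase inhibitors, with bead-bound kinases quantified by mass spectrometry across compound doses.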

UniProt Q7KQJ9, sequence (Q7KQJ9 whole entry): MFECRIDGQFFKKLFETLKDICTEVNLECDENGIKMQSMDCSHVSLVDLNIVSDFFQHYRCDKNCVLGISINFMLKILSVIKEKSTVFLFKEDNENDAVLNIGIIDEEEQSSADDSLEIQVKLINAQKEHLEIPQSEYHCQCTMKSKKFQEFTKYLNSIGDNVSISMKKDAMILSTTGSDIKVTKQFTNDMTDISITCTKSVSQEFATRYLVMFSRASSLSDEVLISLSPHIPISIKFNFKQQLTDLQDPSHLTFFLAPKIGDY
UniProt Q6LFH8, sequence (Q6LFH8 whole entry): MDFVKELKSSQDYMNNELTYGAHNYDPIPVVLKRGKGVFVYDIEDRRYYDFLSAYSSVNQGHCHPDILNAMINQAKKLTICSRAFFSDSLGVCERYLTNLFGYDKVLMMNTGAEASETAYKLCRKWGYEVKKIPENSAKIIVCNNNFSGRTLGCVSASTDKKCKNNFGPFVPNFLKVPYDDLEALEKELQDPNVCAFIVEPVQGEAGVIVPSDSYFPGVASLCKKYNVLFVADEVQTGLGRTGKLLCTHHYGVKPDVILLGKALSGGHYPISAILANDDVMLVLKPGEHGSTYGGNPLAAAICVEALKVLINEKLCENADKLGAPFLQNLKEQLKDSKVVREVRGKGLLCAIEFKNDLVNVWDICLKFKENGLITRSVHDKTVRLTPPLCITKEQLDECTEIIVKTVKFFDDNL

For O=c1[nH]c2ccc(Cl)cc2c(NC2CN3CCC2CC3)c1-c1nc2ccccc2[nH]1 (stereo unspecified) [CHIR-124], which IC50 [1] is on record?
The IC50 was > 20 µM.

What about the IC50 [2] of the same compound?
The IC50 was > 20 µM.

What about the IC50 [3] of the same compound?
The IC50 was > 20 µM.

What about the IC50 [4] of the same compound?
The IC50 was > 20 µM.

What about the IC50 [5] of the same compound?
Its IC50 is > 20 µM.

And the IC50 [6]?
Its IC50 is > 20 µM.

And the IC50 [7]?
The IC50 was > 20 µM.

And the IC50 [8]?
The IC50 was > 20 µM.

And the IC50 [9]?
Its IC50 is > 20 µM.

And the IC50 [10]?
Its IC50 is > 20 µM.

And the IC50 [11]?
The IC50 was > 20 µM.

What about the IC50 [12] of the same compound?
The IC50 was > 20 µM.

What about the IC50 [13] of the same compound?
The IC50 was > 20 µM.

What about the IC50 [14] of the same compound?
Its IC50 is > 20 µM.

What about the IC50 [15] of the same compound?
The IC50 was > 20 µM.

What about the IC50 [16] of the same compound?
The IC50 was > 20 µM.

And the IC50 [17]?
Its IC50 is > 20 µM.

What about the IC50 [18] of the same compound?
Its IC50 is > 20 µM.

What about the IC50 [19] of the same compound?
The IC50 was > 20 µM.

And the IC50 [20]?
The IC50 was > 20 µM.

And the IC50 [21]?
Its IC50 is > 20 µM.

What about the IC50 [22] of the same compound?
The IC50 was > 20 µM.

And the IC50 [23]?
The IC50 was > 20 µM.

What about the IC50 [24] of the same compound?
Its IC50 is > 20 µM.

What about the IC50 [25] of the same compound?
The IC50 was > 20 µM.

And the IC50 [26]?
The IC50 was > 20 µM.

And the IC50 [27]?
Its IC50 is > 20 µM.

And the IC50 [28]?
The IC50 was > 20 µM.

What about the IC50 [29] of the same compound?
Its IC50 is > 20 µM.

What about the IC50 [30] of the same compound?
Its IC50 is > 20 µM.

What about the IC50 [31] of the same compound?
The IC50 was 7.85 µM.

What about the IC50 [32] of the same compound?
The IC50 was > 20 µM.

What about the IC50 [33] of the same compound?
Its IC50 is > 20 µM.

What about the IC50 [34] of the same compound?
Its IC50 is > 20 µM.

And the IC50 [35]?
The IC50 was > 20 µM.

What about the IC50 [36] of the same compound?
The IC50 was > 20 µM.

What about the IC50 [37] of the same compound?
The IC50 was > 20 µM.

And the IC50 [38]?
The IC50 was > 20 µM.

What about the IC50 [39] of the same compound?
Its IC50 is > 20 µM.

What about the IC50 [40] of the same compound?
Its IC50 is > 20 µM.

And the IC50 [41]?
Its IC50 is > 20 µM.

And the IC50 [42]?
The IC50 was > 20 µM.

What about the IC50 [43] of the same compound?
The IC50 was > 20 µM.

What about the IC50 [44] of the same compound?
The IC50 was > 20 µM.

And the IC50 [45]?
Its IC50 is > 20 µM.

What about the IC50 [46] of the same compound?
Its IC50 is 5.2 µM.

And the IC50 [47]?
Its IC50 is > 20 µM.

What about the IC50 [48] of the same compound?
Its IC50 is > 20 µM.

What about the IC50 [49] of the same compound?
The IC50 was > 20 µM.

What about the IC50 [50] of the same compound?
Its IC50 is > 20 µM.

And the IC50 [51]?
The IC50 was > 20 µM.
